Measured values as given in patent US9221761B2, “Method for inhibition of deubiquitinating activity” (Vivolux AB, priority 2011, dated 2015).

Columns and labels:
HCT116 = assay: FMCA (Fluorometric Microculture Cytotoxicity Assay) cytotoxicity; assay type: cell-based; conditions: 72 hours of continuous compound exposure
Experimental: FIGS. 1a to 1o are diagrams illustrating induction of dose-dependent cytotoxicity after 72 hours of continuous compound exposure to the reporter cell line HCT-116 by embodiments of the compound of the invention, as measured FMCA (Fluorometric Microculture Cytotoxicity Assay), as well as absence of such induction by structurally related compounds not comprised by the invention. Treated cells were compared to untreated controls (survival index);
Determination of cell apoptosis and viability. For determination of apoptosis parental HCT-116 p53+/+ cells are treated with the increasing doses of the compound of the invention for 24 h. […] HCT-116 cells are seeded in 96-well microtiter plates at 10,000 cells per well and incubated overnight. Cells are treated with indicated drug for 24 h. At the end of the incubation period, NP40 is added to the tissue culture medium to 0.1% and 25 μl of the content of each well was assayed using the M30-Apoptosense® ELISA as previously described (31). Cell viability is determined by measuring acid phosphatase activity or using the FMCA method (32). For the acid phosphatase activity cells are seeded at 5000 cells per well in 96-well culture plates and incubated for 12 h at 37° C. Compounds are added to the cells in growth media and incubated for 72 h at 37° C. Cells are washed with 200 μl warm PBS. 100 μl of para-nitrophenyl phosphate (pNPP, 2 mg/ml) in Na acetate buffer pH 5 (NaAc 0.1 M, 0.1% Triton-X-100) is added per well. Cells are incubated for 2 h after which reaction was stopped by addition of 1N NaOH. Absorbance is measured at 405 nm. The dose-dependent cytotoxicity of a number of embodiments of the compound of the invention is illustrated in FIGS. 1a-1o.
For the FMCA assay cells are seeded in the drug-prepared 384-well plates using the pipetting robot Precision 2000 (Bio-Tek Instruments Inc., Winooski, Vt.). The plates are incubated for 72 h and then transferred to an integrated HTS SAIGAN Core System consisting of an ORCA robot (Beckman Coulter) with CO2 incubator (Cytomat 2C, Kendro, Sollentuna, Sweden), dispenser module (Multidrop 384, Titertek, Huntsville, Ala.), washer module (ELx 405, Bio-Tek Instruments Inc), delidding station, plate hotels, barcode reader (Beckman Coulter), liquid handler (Biomek 2000, Beckman Coulter) and a multipurpose reader (FLUOstar Optima, BMG Labtech GmbH, Offenburg, Germany) for automated FMCA. Survival index (SI) is defined as the fluorescence of test wells in percentage of controls with blank values subtracted.
FIGS. 3b, 3d, 3f are diagrams illustrating the cytotoxicity of compounds of the invention nos. 1546, 1547, and 1570 with a 7-membered ring moiety in comparison to structurally corresponding compounds not comprised by the invention with a 6-membered ring moiety. Their induction of dose-dependent cytotoxicity was determined after 72 hours of continuous compound exposure to the reporter cell line HCT-116. Treated cells were compared with untreated controls. Cytotoxicity is visualized as survival index (SI) over the range of about 90% SI to about 0% SI in dependence on compound concentration.

[1] = system: MelJuSo Ub-YFP reporter cell line; assay: Proteasome inhibition in reporter cell line, YFP accumulation in IncuCyte-FLR; assay type: cell-based; conditions: YFP accumulation measured for 48 hours; for MeJuSo-UB, IncuCyte lowest effective conc.: Table 1; for MeJuSo-UB, lowest effective conc.: Table 2
Source text: Cell culture. MCF7 cells are maintained in MEM/10% fetal calf serum. HCT-116 p53+/+, p53−/−, Bcl-2+/+, PUMA−/− and BAX−/− cells are maintained in McCoy's 5A modified medium/10% fetal calf serum. The HCT-116 p53+/+, p53−/−, PUMA−/− and BAX−/− are generated as described (25). The HCT-116 Bcl-2+/+ cell line was generated by transfecting parental HCT-116 p53+/+ cells with pCEP4 Bcl-2 (Addgene plasmid 16461) (26) and isolating high expression clones. FaDu and LLC3 cells are maintained in DMEM high glucose medium supplemented with 10% fetal calf serum, Na pyruvate, Hepes and non-essential amino acids. 4T1.12B carcinoma cells are maintained in RPMI medium supplemented with 10% fetal calf serum. The proteasome reporter cell line MelJuSo Ub-YFP was generated as described (12). Cells were maintained in Dulbecco's Modified Eagle's Medium/10% fetal calf serum. […] The retinal epithelial cell line was generated as described (28). All cells are maintained at 37° C. in 5% CO2.
The compound of the invention induces proteasome inhibition. The reporter cell line MelJuSo Ub-YFP, which is engineered to accumulate yellow fluorescent protein (YFP) upon proteasome inhibition (12), was used for compound evaluation. The accumulation of YFP was measured for 48 hours in an IncuCyte-FLR system (Essen Bioscience, Essen, UK), which is an automated fluorescence microscope. Numbers of positive cells per field were used as a measure of proteasome inhibition.

SMILES | IC50 (HCT116; Table 1) | MeJuSo-UB, IncuCyte lowest effective conc. [1] | IC50 (HCT116; Table 2) | MeJuSo-UB, lowest effective conc. [1]
CN1CCC(=Cc2ccc([N+](=O)[O-])cc2)C(=O)C(=Cc2ccc(F)cc2)C1 [Compound 1593] | 2900 nM | 1 µM | – | –
CN1CCC(=Cc2cccc([N+](=O)[O-])c2)C(=O)C(=Cc2cccc([N+](=O)[O-])c2)C1 [Compound 1566] | 2300 nM | 0.5 µM | – | –
COc1ccc(C=C2CN(C(C)=O)CCC(=Cc3ccc(F)cc3)C2=O)cc1 [Compound 1578] | – | – | 7000 nM | 8 µM
N#Cc1cc(C=C2CCNCC(=Cc3ccc(F)c(C#N)c3)C2=O)ccc1F [Compound 1623] | 1000 nM | 0.5 µM | – | –
CC(=O)N1CCC(=Cc2ccc(F)c(F)c2)C(=O)C(=Cc2ccc(F)c(F)c2)C1 [Compound 1628] | – | – | 2300 nM | 1 µM
O=C1C(=Cc2ccc(Cl)cc2)CCN(C(=O)Cc2ccccc2)CC1=Cc1ccc(Cl)cc1 [Compound 1635] | – | – | 1400 nM | 2 µM
O=C1C(=Cc2ccc(F)c(C(F)(F)F)c2)CCNCC1=Cc1ccc(F)c(C(F)(F)F)c1 [Compound 1622] | 800 nM | 0.5 µM | – | –
CN1CCC(=Cc2ccc([N+](=O)[O-])cc2)C(=O)C(=Cc2ccc([N+](=O)[O-])cc2)C1 [Compound 1614] | 7400 nM | 8 µM | – | –
CC(=O)N1CCC(=Cc2ccc(F)c(Cl)c2)C(=O)C(=Cc2ccc(F)c(Cl)c2)C1 [Compound 1631] | – | – | 1000 nM | 32 µM
CN1CCC(=Cc2ccc(Cl)cc2)C(=O)C(=Cc2ccc(F)cc2)C1 [Compound 1589] | 2500 nM | 1 µM | – | –
O=C1C(=Cc2ccc(F)cc2)CCNCC1=Cc1ccc(F)cc1 [Compound 1561] | 1000 nM | 1 µM | – | –
O=C1C(=Cc2ccc(Cl)cc2)CCN(C(=O)c2cccnc2)CC1=Cc1ccc(Cl)cc1 [Compound 1637] | – | – | 2100 nM | 2 µM
CN1CCC(=Cc2ccc(Cl)c(C(F)(F)F)c2)C(=O)C(=Cc2ccc(Cl)c(C(F)(F)F)c2)C1 [Compound 1615] | 900 nM | 0.5 µM | – | –
CC(=O)N1CCC(=Cc2cc(F)c(F)c(F)c2)C(=O)C(=Cc2cc(F)c(F)c(F)c2)C1 [Compound 1629] | – | – | 600 nM | 1 µM
CN1CCC(=Cc2ccc(F)cc2)C(=O)C(=Cc2ccc([N+](=O)[O-])cc2)C1 [Compound 1587] | 3000 nM | 1 µM | – | –
C=CC(=O)N1CCC(=Cc2ccc([N+](=O)[O-])cc2)C(=O)C(=Cc2ccc(OC)cc2)C1 [Compound 1580] | – | – | 1500 nM | 8 µM
O=C1/C(=C/c2cc(F)c(F)c(F)c2)CCN(C(=O)Cc2ccccn2)C/C1=C\c1cc(F)c(F)c(F)c1 [Compound 1653] | – | – | 710 nM | 1 µM
CN1CCC(=Cc2cc(F)cc(C(F)(F)F)c2)C(=O)C(=Cc2cc(F)cc(C(F)(F)F)c2)C1 [Compound 1612] | 700 nM | 0.25 µM | – | –
CC(=O)OCC(=O)N1CC/C(=C\c2ccc(C(F)(F)F)cc2)C(=O)/C(=C/c2ccc(C(F)(F)F)cc2)C1 [Compound 1642] | – | – | 1200 nM | 1 µM

SMILES | IC50 (HCT116; Table 1) | MeJuSo-UB, IncuCyte lowest effective conc. [1] | IC50 (HCT116; Table 2) | MeJuSo-UB, lowest effective conc. [1]
O=C(Cc1ccccn1)C(=O)N1CCC(=Cc2ccc(Cl)c(C(F)(F)F)c2)C(=O)C(=Cc2ccc(Cl)c(C(F)(F)F)c2)C1 [Compound 1658] | – | – | 800 nM | 0.5 µM
CN1CCC(=Cc2ccc(F)c(C#N)c2)C(=O)C(=Cc2ccc(F)c(C#N)c2)C1 [Compound 1618] | 1500 nM | 0.5 µM | – | –
O=C1C(=Cc2ccc(C(F)(F)F)cc2)CCN(C(=O)Cc2cccnc2)CC1=Cc1ccc(C(F)(F)F)cc1 [Compound 1641] | – | – | 2700 nM | 2 µM
O=C1C(=Cc2ccc([N+](=O)[O-])cc2)CCNCC1=Cc1ccc(Cl)cc1 [Compound 1591] | 900 nM | 0.5 µM | – | –
O=C1C(=Cc2ccc(Cl)cc2)CCNCC1=Cc1ccc([N+](=O)[O-])cc1 [Compound 1592] | 12000 nM | 4 µM | – | –
O=C1C(=Cc2ccc([N+](=O)[O-])cc2)CCNCC1=Cc1ccc([N+](=O)[O-])cc1 [Compound 1613] | 25000 nM | 32 µM | – | –
O=C1C(=Cc2cc(F)cc(C(F)(F)F)c2)CCNCC1=Cc1cc(F)cc(C(F)(F)F)c1 [Compound 1611] | 1100 nM | 0.5 µM | – | –
CCOc1cc(CC(=O)N2CCC(=Cc3ccc(Cl)cc3)C(=O)C(=Cc3ccc(Cl)cc3)C2)ccc1O [Compound 1639] | – | – | 1200 nM | 1 µM
CN1CCC(=Cc2ccc(F)cc2)C(=O)C(=Cc2ccc(F)cc2)C1 [Compound 1564] | 900 nM | 16 µM | – | –
O=C1C(=Cc2ccc(F)cc2)CCNCC1=Cc1ccc(Cl)cc1 [Compound 1582] | 1700 nM | 2 µM | – | –
CC(=O)OCCC(=O)N1CCC(=Cc2ccc(F)c([N+](=O)[O-])c2)C(=O)C(=Cc2ccc(F)c([N+](=O)[O-])c2)C1 [Compound 1662] | – | – | 2100 nM | 1 µM
CC(=O)OCC(=O)N1CC/C(=C\c2ccc(Cl)c(C(F)(F)F)c2)C(=O)/C(=C/c2ccc(Cl)c(C(F)(F)F)c2)C1 [Compound 1656] | – | – | 700 nM | 0.5 µM
C=CC(=O)N1CCC(=Cc2cccc([N+](=O)[O-])c2)C(=O)C(=Cc2cccc([N+](=O)[O-])c2)C1 [Compound 1572] | – | – | 2500 nM | 0.5 µM
CC(=O)N1CCC(=Cc2ccc([N+](=O)[O-])cc2)C(=O)C(=Cc2ccc([N+](=O)[O-])cc2)C1 [Compound 1567] | – | – | 600 nM | 0.5 µM
CN1CCC(=Cc2ccc(F)c(Cl)c2)C(=O)C(=Cc2ccc(F)c(Cl)c2)C1 [Compound 1608] | 1800 nM | 1 µM | – | –
O=C1C(=Cc2ccc(Cl)cc2)CCNCC1=Cc1ccc([N+](=O)[O-])cc1 [Compound 1584] | 1800 nM | 2 µM | – | –
CN1CCC(=Cc2ccc([N+](=O)[O-])cc2)C(=O)C(=Cc2ccc(Cl)cc2)C1 [Compound 1594] | 2600 nM | 1 µM | – | –
CN1CCC(=Cc2ccc(F)cc2)C(=O)C(=Cc2ccc(Cl)cc2)C1 [Compound 1595] | 2300 nM | 1 µM | – | –
O=C1C(=Cc2ccc(Cl)cc2)CCN(C(=O)c2cccs2)CC1=Cc1ccc(Cl)cc1 [Compound 1638] | – | – | 2000 nM | 2 µM
